Experiment [1] concerns Plasmodium falciparum. The experiment in a line: Antimalarial potency against Plasmodium falciparum at 0.05 ng/mL. The format is functional.
For experiment [2], the system named is Plasmodium falciparum. The experiment in a line: Anti-malarial potency against Plasmodium falciparum at 0.1 ng/ml. Format: functional.
Experiment [3] concerns Plasmodium falciparum. In words: Antimalarial potency against Plasmodium falciparum at 0.5 ng/mL. Format: functional.
Experiment [4] relates to Plasmodium falciparum. In words: Anti-malarial potency against Plasmodium falciparum at 5 ng/ml. The format is functional.
Experiment [5] relates to KB 3-1. The experiment in a line: Cytotoxic activity against KB 3-1 cells at 5 ug/mL; Not detected. The format is functional, cell-based. The settings on record: Homo sapiens.
For experiment [6], the system named is Plasmodium falciparum. In words: Inhibitory ratio on proliferation of Plasmodium falciparum at 0.1 uM. The format is functional.
In experiment [7] the test system is KB 3-1. In words: Cytotoxic activity against KB 3-1 cells at 5 ug/m; Not detected. Format: functional, cell-based. The following applies: Homo sapiens.

This is an account of results in ChEMBL document CHEMBL1133951, “New anti-malarial flavonol glycoside from Hydrangeae Dulcis Folium” (2001).

Regarding `C[C@@H]1O[C@@H](OC[C@H]2O[C@H](Oc3c(-c4ccc(O)cc4)oc4cc(O)cc(O)c4c3=O)[C@H](O)[C@H](O)[C@H]2O)[C@H](O)[C@H](O)[C@H]1O`, the Activity in the experiment on Plasmodium falciparum [1] came to 30.5%; in the experiment with Plasmodium falciparum [2] it was 49.1%; in the experiment with Plasmodium falciparum [3], 60.1%; with Plasmodium falciparum [4], 50.9%.

With `CC(=O)OC[C@H]1O[C@@H](O[C@@H]2[C@@H](O)[C@@H](O)[C@H](Oc3c(-c4ccc(O)c(O)c4)oc4cc(O)cc(O)c4c3=O)O[C@H]2C)[C@H](O)[C@H](O)[C@H]1O`, in the experiment with KB 3-1 [5], the Cytotoxicity entry was “Not detected”. For the same molecule, the Activity with Plasmodium falciparum [1] is 27.4%; in the experiment with Plasmodium falciparum [2], 40.3%; with Plasmodium falciparum [3], 52.1%; in the experiment with Plasmodium falciparum [4], 65.4%.

In the case of `C[C@@H]1O[C@@H](OC[C@H]2O[C@@H](Oc3c(-c4ccc(O)cc4)oc4cc(O)cc(O)c4c3=O)[C@H](O[C@H]3OC[C@H](O)[C@@H](O)[C@@H]3O)[C@@H](O)[C@H]2O)[C@H](O)[C@H](O)[C@H]1O`, the Cytotoxicity result with KB 3-1 [5] is “Not detected”. In addition, the Activity with Plasmodium falciparum [1] was determined as 37.6%; in the experiment on Plasmodium falciparum [2], 54.2%; in the experiment on Plasmodium falciparum [3] it was 68.7%; with Plasmodium falciparum [4], 58.9%.

Consider `C=C[C@H]1CN2CC[C@H]1C[C@H]2[C@H](O)c1ccnc2ccc(OC)cc12` [QUININE], for which the Inhibitory ratio in the experiment with Plasmodium falciparum [6] was determined as 45.3.

`C[C@@H]1O[C@@H](Oc2c(-c3ccc(O)c(O)c3)oc3cc(O)cc(O)c3c2=O)[C@H](O)[C@H](O)[C@H]1O[C@@H]1O[C@H](CO)[C@H](O)[C@@H](O)[C@H]1O`: the Activity turned out to be 25% in the experiment with Plasmodium falciparum [1], 32.8% in the experiment on Plasmodium falciparum [2], 43.4% in the experiment with Plasmodium falciparum [3] and 48.1% in the experiment on Plasmodium falciparum [4].

With `O=c1c(O[C@@H]2O[C@H](CO[C@@H]3OC[C@@H](O)[C@H](O)[C@H]3O)[C@H](O)[C@H](O)[C@H]2O)c(-c2ccc(O)cc2)oc2cc(O)cc(O)c12`, the Cytotoxicity entry with KB 3-1 [7] is “Not detected”. For the same molecule, the Activity in the experiment with Plasmodium falciparum [1] was determined as 22.4%; in the experiment on Plasmodium falciparum [2] it was 43.1%; with Plasmodium falciparum [3], 61.9%; with Plasmodium falciparum [4] it was 56.2%.

As for `O=c1c(O[C@@H]2O[C@H](CO)[C@H](O)[C@@H](O)[C@H]2O)c(-c2ccc(O)c(O)c2)oc2cc(O)cc(O)c12`, the Activity amounted to 31.1% with Plasmodium falciparum [1], 27.7% in the experiment with Plasmodium falciparum [2], 31.7% in the experiment on Plasmodium falciparum [3] and 36.8% in the experiment with Plasmodium falciparum [4].

For `COc1cc(-c2oc3cc(O)cc(O)c3c(=O)c2O[C@H]2O[C@H](CO[C@@H]3O[C@@H](C)[C@H](O)[C@@H](O)[C@H]3O)[C@H](O)[C@@H](O)[C@H]2O)ccc1O`, the Activity worked out at 10.8% in the experiment on Plasmodium falciparum [1], 24.5% in the experiment on Plasmodium falciparum [2], 44.5% with Plasmodium falciparum [3] and 41.5% in the experiment on Plasmodium falciparum [4].

On to `C[C@@H]1O[C@@H](OC[C@H]2O[C@H](Oc3c(-c4ccc(O)c(O)c4)oc4cc(O)cc(O)c4c3=O)[C@H](O)[C@H](O)[C@H]2O)[C@H](O)[C@H](O)[C@H]1O`, for which the Cytotoxicity result with KB 3-1 [5] was “Not detected”. Also, the Activity in the experiment on Plasmodium falciparum [1] was determined as 38.7%; with Plasmodium falciparum [2], 51.6%; with Plasmodium falciparum [3] it was 56%; in the experiment on Plasmodium falciparum [4], 56.4%.

Regarding `C[C@@H]1O[C@@H](Oc2c(-c3ccc(O)c(O)c3)oc3cc(O)cc(O)c3c2=O)[C@H](O)[C@H](O)[C@H]1O` [QUERCITRIN], the Activity worked out at 34% in the experiment on Plasmodium falciparum [1], 39.4% with Plasmodium falciparum [2], 36% in the experiment on Plasmodium falciparum [3] and 32.9% in the experiment on Plasmodium falciparum [4].
